# Entries after “also recorded” stand apart in the source; their conditions may differ.
# Assays:
# [1] = test system: PBMCs from patients with cancer and healthy donors; test: IFN-γ ELISPOT assay on PBMCs; format: cell-based, human; details: for specific T-cell responses, IFN-γ ELISPOT in vitro assay: PBMCs from HLA-A2+ patients with cancer, stimulated once in vitro with peptide; for IFN-γ ELISPOT response, significance according to the DFR test / IFN-γ ELISPOT response, significance according to the DFR×2 rule: 5 selected PBMCs, patients with malignant melanoma; for immune responses, IFN-γ ELISPOT assay: PBMCs from healthy donors; for CD4+ T cell responses against long peptides, IFN-γ ELISPOT assay: PBMCs from 11 patients with cancer and 11 healthy donors
# Protocol: (§1) We collected blood samples from patients with melanoma, renal cell carcinoma, non-hodgkin lymphoma, and ovarian cancer and from healthy. Samples were collected a minimum of four weeks after the termination of any kind of anti-cancer therapy. Peripheral blood mononuclear cells (PBMCs) were isolated using Lymphoprep™ (Alere A S, cat. 1114547) separation, HLA-typed and frozen in FCS with 10% DMSO (Sigma-Aldrich, cat. D5879-100ML). Tumor Infiltrating lymphocytes (TIL) from lesions from two melanoma patients were expanded using high dose IL-2 (6000 units/ml). The protocol was approved by the Scientific Ethics Committee for The Capital Region of Denmark and conducted in accordance with the provisions of the Declaration of Helsinki. Before study entry, a written informed consent from the patients was obtained.
# (§2) The IFN-γ and TNF-α ELISPOT technique was performed as described previously (3). We performed the assays according to the guidelines provided by the cancer immunotherapy immunoguiding program (CIP; cimt.eu/cimt/files/dl/cip guidelines.pdf). Unless stated otherwise, PBMCs were stimulated once in vitro with peptide prior to analysis to extend the sensitivity of the assay. To measure T-cell reactivity, nitrocellulose-bottomed 96-well plates (MultiScreen MSIPN4W; Millipore) were coated overnight at room temperature or two days at 4° C. with the relevant antibodies. The wells were washed and blocked with X-vivo medium for 2 h. The PBMCs were added at different cell concentrations in triplicate wells, with PD-L2 peptide or with control peptide, and incubated overnight. The following day, the wells were washed, and the relevant biotinylated secondary antibody (Mabtech) was added, followed by the avidin-enzyme conjugate (AP-Avidin; Calbiochem/Invitrogen Life Technologies); finally, we added the enzyme substrate, NBT/BCIP (Invitrogen Life Technologies) for visualization. The spots on the developed ELISPOT plates were analyzed on a CTL ImmunoSpot S6 Ultimate-V analyzer with Immunospot software, v5.1.
# An ELISPOT response was defined, based on the guidelines and recommendations provided by CIP and Moodie et al (5). The non-parametric distribution-free resampling (DFR) and more conservative DFR×2 statistical test were used for a formal comparison between antigen-stimulated wells and negative-control wells. The ELISPOT assays were performed at least in triplicate.
# [2] = test system: TAP deficient T2 cells pulsed with peptide; test: 51chromium-release cytotoxicity assay, PD-L2-specific T-cell cultures against peptide-pulsed T2 cells; format: cell-based, human; details: cultures A and B
# Protocol: (§3) PBMCs from a patient with melanoma were stimulated with irradiated (30 Gy) autologous DCs, which had been pulsed with PD-L205 (PD-L2(16-25)) peptide (PBL:DC ratio 10:1) and IL-7 (40 U/ml) were added (PeproTech, London, UK). The next day, IL-12 (20 U/ml) was added (PeproTech, London, UK). At weekly intervals, we performed three identical stimulations, with irradiated autologous DCs loaded with PDL205 (PD-L2(16-25)), and IL-12 (20 U/ml) added the next day. Then, at weekly intervals, we stimulated the culture three more times with irradiated autologous PBLs loaded with PDL205 (PD-L2(16-25)) (culture:PBL ratio 1:1), but the next day, we added IL-2 (120 U/ml; Proleukin, Novartis).
# (§4) The culture was enriched for specific T cells, either by staining with an anti-CD137-PE antibody (BD-Biosciences) or by employing a TNF-α-enrichment and detection kit (according to the procedure by Miltenyi Biotec). Next, we performed magnetic cell isolation with a MACs microbead column (according to the procedure by Miltenyi Biotec). The sorted cells were rapidly expanded by incubating with 0.6 μg anti-CD3 antibody (eBioscience, clone OKT3) and a high dose of IL-2 (Proleukin, Novartis).
# (§5) Cytotoxicity Assay PD-L1-specific and PD-L2-specific T-cell-mediated cytotoxicity was measured with conventional 51chromium-release assays, as previously described (4). Target cells were TAP deficient T2 cells, pulsed with HIV-1 pol476-484 ([…], SEQ ID NO: 26), PD-L101 (PD-L1(15-23)), or PD-L205 (PD-L2(16-25)). siRNA-Mediated PD-L2 Silencing of DCs
# [3] = test system: TAP-deficient T2 cells pulsed with peptide; test: 51Cr release assay, PD-L101-specific T-cell culture against peptide-pulsed T2 cells; format: cell-based, human; details: different effector-to-target ratios
# Protocol: as §5
# [4] = test system: PBMCs from patients with malignant melanoma; test: TNF-α ELISPOT assay on PBMCs; format: cell-based, human; details: 5 selected PBMCs
# Protocol: as §1
# The IFN-γ and TNF-α ELISPOT technique was performed as described previously (3). We performed the assays according to the guidelines provided by the cancer immunotherapy immunoguiding program (CIP; cimt.eu/cimt/files/dl/cip guidelines.pdf). Unless stated otherwise, PBMCs were stimulated once in vitro with peptide prior to analysis to extend the sensitivity of the assay. […] The spots on the developed ELISPOT plates were analyzed on a CTL ImmunoSpot S6 Ultimate-V analyzer with Immunospot software, v5.1. […]
# [5] = test system: PD-L101-specific CD8+ T cells; test: Intracellular cytokine staining of PD-L101-specific T-cell culture; format: cell-based, human
# Protocol: (§6) To detect cell subpopulations that produced cytokines, we stimulated a PD-L1-specific T-cell culture (previously described (1)) and a PD-L2-specific T-cell culture with 5 μg/ml of relevant or irrelevant peptide, and incubated the cells for 5 h at 37° C. with 5% CO2. After 1 h of incubation, we added GolgiPlug (BD), diluted at 1:200. After 4 h, cells were washed twice with PBS, stained with fluorochrome-conjugated antibodies specific for surface markers (CD3-APC-H7, CD4-PerCP/FITC, CD8-Pacific Blue/PerCP, and Horizon Fixable Viability Stain 510, all from BD). Cells were washed, fixed, and permeabilized with Fixation/Permeabilization and Permeabilization Buffer (eBioscience), according to the manufacturer's instructions. Cells were subsequently stained with fluorochrome-conjugated antibodies to visualize intracellular cytokines. The following antibody-fluorochrome combinations were used: IFNγ-PE-CY7/APC (eBioscience) and TNFα-APC/BV421 (eBioscience). Relevant isotype controls were used to enable correct compensation and confirm antibody specificity. Stained cells were analyzed with a BD FACSCanto II flow cytometer. Analysis was performed with BD FACSDiva Software.
# T cells = details: previously described, refs (1), (2), (6); cited from earlier work
# [6] = test system: Tumor infiltrating T-lymphocytes from two melanoma patients; test: Intracellular cytokine staining of tumor infiltrating T-lymphocytes; format: cell-based, human; details: TILs from two melanoma patients
# Protocol: as §1
# To detect cell subpopulations that produced cytokines, we stimulated a PD-L1-specific T-cell culture (previously described (1)) and a PD-L2-specific T-cell culture with 5 μg/ml of relevant or irrelevant peptide, and incubated the cells for 5 h at 37° C. with 5% CO2. After 1 h of incubation, we added GolgiPlug (BD), diluted at 1:200. […] Stained cells were analyzed with a BD FACSCanto II flow cytometer. […]
# [7] = test system: PD-L2 T cell culture-A and -B (PD-L205-specific T cells); test: Intracellular cytokine staining of PD-L2-specific T-cell cultures; format: cell-based, human
# Protocol: as §3, §4, §6
# [8] = test system: PD-L2 T cell culture-A and -B (PD-L205-specific T cells); test: ELISPOT assay on PD-L2-specific T-cell cultures; format: cell-based, human; details: both PD-L2 specific cultures
# Protocol: as §2, with “v5.1. […]” for “v5.1.”
sequence,measurement,setting,value
"FIFIATVIAL (Peptide fragment of human PDL2) [PD-L215, HLA-A2 restricted peptide fragment of human PD-L2]","specific T-cell responses, IFN-γ ELISPOT in vitro assay",[1],detected immune responses
ILKEPVHGV (HIV-1 (HLA-A2 high affinity binding epitope)) [HIV-1 pol476-484],recognition and lysis of peptide-pulsed T2 cells by PD-L2 (PD-L205)-specific T-cell cultures,[2],did not recognize; also recorded: did not kill
same,lysis of peptide-pulsed T2 cells by PD-L101-specific T cells,[3],no cytotoxicity was observed
"LLLMLSLEL (Peptide fragment of human PDL2) [PD-L201, HLA-A2 restricted peptide fragment of human PD-L2]","IFN-γ ELISPOT response, significance according to the DFR test",[1],statistically significant
same,"IFN-γ ELISPOT response, significance according to the DFR×2 rule",[1],statistically significant
same,"specific T-cell responses, IFN-γ ELISPOT in vitro assay",[1],detected immune responses
same,"immune responses, IFN-γ ELISPOT assay",[1],weaker responses
same,"TNF-α ELISPOT response, significance according to the DFR test",[4],statistically significant
LLNAFTVTV (PD-L101 (PDL1 peptide)),"spontaneous T-cell responses, IFN-γ ELISPOT test",[1]; PBMCs from patients with cancer that responded to PD-L205,did not detect any immune response
same,recognition and lysis of peptide-pulsed T2 cells by PD-L2 (PD-L205)-specific T-cell cultures,[2],did not kill
same,lysis of peptide-pulsed T2 cells by PD-L101-specific T cells,[3],only lysed T2-cells pulsed with PD-L101
same,cytokine release (IFN-γ and TNF-α) from PD-L101-specific CD8+ T cells,[5],released cytokines only in response to PD-L101
same,T cell response elicited by epitope,T cells,strong T cell response
MIFLLLMLSLELQLHQIAALFTVTV (Peptide fragment of human PDL2) [PD-L2long2],"CD4+ T cell responses against long peptides, IFN-γ ELISPOT assay",[1],frequent but moderate responses
same,"IFN-γ responses, in vitro ELISPOT assay","[1]; PBMCs from four non-hodgkin lymphoma patients, DFR rule",All four patients showed responses that were statistically significant
same,"IFN-γ CD4+ T-cell responses, intracellular cytokine staining",[6],elicited IFN-γ CD4+ T-cell responses
"QIAALFTVTV (Peptide fragment of human PDL2) [PD-L205, HLA-A2 restricted peptide fragment of human PD-L2]","IFN-γ ELISPOT response, significance according to the DFR test",[1],statistically significant
same,"IFN-γ ELISPOT response, significance according to the DFR×2 rule",[1],statistically significant
same,"specific T-cell responses, IFN-γ ELISPOT in vitro assay",[1],detected immune responses
same,ex vivo IFN-γ ELISPOT response,"[1]; PBMCs from four donors, directly ex vivo without prior in vitro peptide stimulation, DFR rule",one of these donors showed an ex vivo IFN-γ response that was statistically significant
same,"immune responses, IFN-γ ELISPOT assay",[1],strong immune responses
same,epitope dominance in eliciting immune responses,"[1]; in general, across donors",dominant PD-L2 epitope; also recorded: strongest responses
same,"TNF-α ELISPOT response, significance according to the DFR test",[4],statistically significant
same,CD4+ T cells with TNF-α release in response to peptide,[7]; PD-L2 T cell culture-A,about 4.5%
same,CD8+ T cells with TNF-α release in response to peptide,[7]; PD-L2 T cell culture-A,~1%
same,CD4+ T cells with TNF-α release in response to peptide,[7]; PD-L2 T cell culture-B,about 7%
same,CD8+ T cells with TNF-α release in response to peptide,[7]; PD-L2 T cell culture-B,~2%
same,"IFN-γ and TNF-α T cell responses, ELISPOT",[8],T cell responses were observed
same,recognition and lysis of peptide-pulsed T2 cells by PD-L2 (PD-L205)-specific T-cell cultures,[2],could indeed recognize
same,recognition and lysis of peptide-pulsed T2 cells by PD-L2 (PD-L205)-specific T-cell cultures,[2]; listed as PDL205,recognized and lysed
same,lysis of peptide-pulsed T2 cells by PD-L101-specific T cells,[3],no cytotoxicity was observed
SLELQLHQIAALFTVTVPKEL (Peptide fragment of human PDL2) [PD-L2long1],"CD4+ T cell responses against long peptides, IFN-γ ELISPOT assay",[1],frequent but moderate responses
